Like-named read-outs stand apart in the source and are kept apart here.
Columns and labels:
GPR55 (PANC-1 cells) = assay: Western blot of cancer biomarker and MDR proteins in PANC-1 cell lysates; conditions: for AM251-induced increase in BCRP expression: PANC-1, antagonist 1 μM before AM251 1 μM
Procedure: (§4) In the first series of experiments, PANC-1 cells were incubated with media containing vehicle (0.01% DMSO) or MNF (10, 100, 500 and 1000 nM) for 24 hours. The medium was removed, and cells were collected and processed for immunoblot analysis. […] Cell lysates were processed for immunoblot analysis, focusing on the expression of selected cancer cell biomarkers. In the third series of experiments, serum-starved PANC-1 cells were pretreated with vehicle (0.01% DMSO), 1 μM MNF, or 1 μM CID for 10 minutes followed by a 20 minute incubation with and without 1 AM251. Cell lysates were processed for immunoblot analysis and the levels of phospho-active (Ser473) and total forms of AKT were determined. All experiments were repeated three times on three separate days, unless stated otherwise.
Cells were lysed in radioimmuno precipitation buffer containing EGTA and EDTA (Boston BioProducts, Ashland, Mass.) supplemented with protease inhibitor cocktail (Sigma-Aldrich). Protein concentration in clarified lysates was determined using the bicinchoninic acid reagent (Thermo Fisher Scientific). […] Western blots were performed according to standard methods, which involved a blocking step in Tris-buffered saline/0.1% Tween-20 (TBS-T) supplemented with 5% non-fat milk and incubation with primary antibodies of interest. All membrane-bound primary antibodies were detected with horseradish peroxidase-conjugated secondary antibodies (Santa Cruz Biotechnology, Dallas, Tex.) and visualized by enhanced chemiluminescence (ECL Plus, GE Healthcare, Piscataway, N.J.). Quantification of the protein bands was performed by volume densitometry using ImageJ software (National Institutes of Health, Bethesda, Md.) and normalization to β-actin or Lamin A/C. […] The antibodies were used at the dilution recommended by the manufacturers.

[1] = system: phospho-PKM2 (Ser37) in PANC-1 cells; assay: Immunofluorescence confocal measurement of nuclear phospho-PKM2; type: cell-based, human; conditions: PANC-1, 1 μM 10 minutes, basal and after AM251 stimulation
Procedure: Measurement of nuclear phospho-PKM2. PANC-1 cells were seeded on Lab-Tek II CC2 chamber slides (Thermo Scientific Nunc, Rochester, N.Y.) and grown until they reached >70% confluence. […] The GPR55 agonist AM251 (1 μM) was added for 20 minutes where indicated. Cells were washed twice with PBS, fixed with 4% (v/v) paraformaldehyde (Sigma-Aldrich) in PBS for 20 minutes at room temperature, followed by 3×PBS washes and permeabilization with 0.1% Triton X-100 (Sigma-Aldrich) for 15 minutes. Next, the cells were incubated with 10% goat serum for 1 hour, followed by overnight incubation with rabbit polyclonal anti-phospho-PKM2 antibody (Ser37, 1:200) at 4° C. After 3×PBS washes, Alexa Fluor 488-conjugated goat anti-rabbit antibody (Invitrogen; 1:1000) was added to the slides for 2 hours at room temperature. The slides were washed with PBS and mounted in Prolong Gold antifade mounting medium containing DAPI (4′,6-diamidino-2-phenylindole) (Invitrogen) for nuclear counterstaining. The slides were cured for 24 hours at room temperature in the dark, after which images were acquired with a Zeiss LSM 710 confocal microscope using Carl Zeiss LSM software (Thorn-wood, NY). ImageJ software was used to quantify the changes in the nuclear pool of phospho-PKM2 levels.

[2] = system: AKT phosphorylation (PANC-1 cells); assay: Western blot of phospho-active (Ser473) and total AKT in PANC-1 cells; conditions: PANC-1, 1 μM 10 minutes, basally and after AM251 20 minutes
Procedure: as §4

[3] = system: HIF-1α, phospho-PKM2 (Ser37), phospho-β-catenin (Tyr333) in PANC-1 nuclear extracts; assay: Western blot of nuclear translocation of cancer biomarkers in PANC-1 nuclear extracts; type: cell-based, human; conditions: PANC-1, 1 μM, 10 minutes, with and without AM251 1 μM 20 minutes
Procedure: Nuclear protein extraction was carried out using a NE-PER Kit followed by the determination of the levels of HIF-1α and phospho-active forms of β-catenin (Tyr333) and PKM2 (Ser37) by immunoblotting. The same experiment was repeated three times on three separate days.
Cells were lysed in radioimmuno precipitation buffer containing EGTA and EDTA (Boston BioProducts, Ashland, Mass.) supplemented with protease inhibitor cocktail (Sigma-Aldrich). Protein concentration in clarified lysates was determined using the bicinchoninic acid reagent (Thermo Fisher Scientific). Proteins (20 μg/well) were separated on 4-12% precast gels (Invitrogen, Carlsbad, Calif.) using SDS-polyacrylamide gel electrophoresis under reducing conditions and then electrophoretically transferred onto polyvinylidenefluoride membrane (Invitrogen). […] All membrane-bound primary antibodies were detected with horseradish peroxidase-conjugated secondary antibodies (Santa Cruz Biotechnology, Dallas, Tex.) and visualized by enhanced chemiluminescence (ECL Plus, GE Healthcare, Piscataway, N.J.). Quantification of the protein bands was performed by volume densitometry using ImageJ software (National Institutes of Health, Bethesda, Md.) and normalization to β-actin or Lamin A/C. […]

PANC-1 cells [4] = assay: [3H]-thymidine incorporation (proliferation / cytotoxicity) in PANC-1 cells; type: cell-based, human; conditions: for IC50: Homo sapiens; for fold decrease in calculated IC50 by MNF pretreatment: PANC-1, MNF 1 μM 24 hours pretreatment
Procedure: (§1) [^3H]-Thymidine incorporation studies. Cells were seeded in 24-well plates at 2.5×10^4 cells per well and grown for 24 hours at 37° C. The effect of MNF (0-10 μM) on [^3H]-thymidine incorporation into PANC-1, MDA-MB-231, and MCF-7 cells was investigated following procedures previously described in Paul, et al., Cannabinoid receptor activation correlates with the proapoptotic action of the β2-adrenergic agonist (R,R′)-4-methoxy-1-naphthylfenoterol in HepG2 hepatocarcinoma cells, J. Pharmacol. Exp. Ther., vol. 343, pgs 157-166 (2012); and Paul, et al., (R,R′)-4′-methoxy-1-naphthylfenoteroltargets GPR55-mediated ligand internalization and impairs cancer cellmotility, Biochem. Pharmacol., vol. 87, pgs 547-561 (2014). The effect of MNF on doxorubicin cytotoxicity in PANC-1 cells was measured using [^3H]-thymidine incorporation. In these studies, the cells were incubated with either fresh medium containing vehicle (0.01% DMSO) or MNF (1 μM) for 24 hours. The spent media was removed and replaced with fresh media supplemented with doxorubicin (0-10 μM) and the cells incubated for an additional 24 hours. [^3H]-Thymidine (1 μCi per well) incorporation into DNA was then performed for 16 hours. Cells were washed with PBS, lysed in 600 μt of 0.1 N NaOH, and the radioactivity was measured by liquid scintillation counting. Three independent experiments were conducted on separate days. Similar experiments were conducted to investigate the effect of MNF on the cytotoxicity of gemcitabine (0-10 μM) in PANC-1 cells. The effects of MNF (1 μM) on the cytotoxicity of doxorubicinin MDA-MB-231 cells and of MNF (0.01 μM) on the cytotoxicity of doxorubicin in U87MG cells were investigated using the protocol described above.
(§2) Sigmoidal dose-response curves (IC50 curves) were determined using the ‘nonlinear regression (curve fit)’ model contained within the Prism 4 software package (GraphPad Software, Inc., La Jolla, Calif.) running on a personal computer. For immunoblot analyses, statistical comparisons between treated and control groups were performed using unpaired Student's t-tests. Data are expressed as relative fold change ±standard deviation. P values ≤0.05 were considered significant.

[5] = system: Pgp, BCRP in PANC-1 nuclear extracts; assay: Immunoblot of Pgp and BCRP in PANC-1 nuclear extracts; type: cell-based, human; conditions: MNF 0.5 and 1 μM, 24 hours
Procedure: Values were normalized to PANC-1 cells treated with 0.01% DMSO as control. Data are expressed as mean±SD from 3 independent experiments. FIG. 5C presents fluorescence imaging of intracellular doxorubicin in PANC-1 cells pretreated with MNF (1 μM) for 24 hours and followed with 0.125 μM of doxorubicin treatment for 2 hours. The upper panel of FIG. 5D presents representative immunoblot depicting protein levels of Pgp, BCRP, and lamin A/C in PANC-1 nuclear extracts after cell treatment with 0.5 and 1 μM of MNF for 24 hours. In the lower panel of FIG. 5D, protein bands were quantified by densitometry and the data normalized to lamin A/C levels and plotted relative to cells treated with 0.01% DMSO as control.
Cells were lysed in radioimmuno precipitation buffer containing EGTA and EDTA (Boston BioProducts, Ashland, Mass.) supplemented with protease inhibitor cocktail (Sigma-Aldrich). Protein concentration in clarified lysates was determined using the bicinchoninic acid reagent (Thermo Fisher Scientific). […] All membrane-bound primary antibodies were detected with horseradish peroxidase-conjugated secondary antibodies (Santa Cruz Biotechnology, Dallas, Tex.) and visualized by enhanced chemiluminescence (ECL Plus, GE Healthcare, Piscataway, N.J.). […]

MCF-7 cells = assay: [3H]-thymidine incorporation (proliferation) in MCF-7 cells; type: cell-based, human; conditions: MCF-7 (low GPR55), MNF 24 hours
Procedure: as §1, with “Similar experiments were conducted to investigate the effect of MNF on the cytotoxicity of gemcitabine (0-10 μM) in PANC-1 cells. The effects of MNF (1 μM) on the cytotoxicity of doxorubicinin MDA-MB-231 cells and of MNF (0.01 μM) on the cytotoxicity of doxorubicin in U87MG cells were investigated using the protocol described above.” left out

[6] = system: MDA-MB-231 breast cancer cells; assay: [3H]-thymidine incorporation (proliferation / cytotoxicity) in MDA-MB-231 cells; type: cell-based, human; conditions: for IC50: Homo sapiens
Procedure: as §1, §2

MDA-MB-231 cells = assay: Intracellular uptake of doxorubicin (fluorescence imaging) in MDA-MB-231 cells; type: cell-based, human; conditions: MDA-MB-231, MNF 1 μM 24 hours, then doxorubicin 0.125 μM 2 hours, vs control cells
Procedure: (§3) PANC-1 and MDA-MB-231 cells were seeded on Lab-Tek II CC2 chamber slides and grown until they reached >70% confluence. The original media was removed and cells were incubated in fresh media supplemented with vehicle (0.01% DMSO) or 1 μM MNF for 24 hours, after which doxorubicin (0.125 μM) was added for an additional 2 hours. The cells were washed with PBS and the images were acquired with a Zeiss axiovert 200 microscope using standard FITC filter (#09 filter set) and Carl Zeiss LSM software. ImageJ software was used to quantify the changes in the nuclear accumulation of doxorubicin defined as ring-shaped regions of interest (ROI).

PANC-1 cells [7] = assay: Intracellular uptake of doxorubicin (fluorescence imaging) in PANC-1 cells; type: cell-based, human; conditions: PANC-1, MNF 1 μM 24 hours, then doxorubicin 0.125 μM 2 hours, vs control cells
Procedure: as §3

U87MG glioblastoma cells = assay: [3H]-thymidine incorporation (doxorubicin cytotoxicity) in U87MG cells; type: cell-based; conditions: Homo sapiens, U-87 MG
Procedure: [^3H]-Thymidine incorporation studies. Cells were seeded in 24-well plates at 2.5×10^4 cells per well and grown for 24 hours at 37° C. The effect of MNF (0-10 μM) on [^3H]-thymidine incorporation into PANC-1, MDA-MB-231, and MCF-7 cells was investigated following procedures previously described in Paul, et al., Cannabinoid receptor activation correlates with the proapoptotic action of the β2-adrenergic agonist (R,R′)-4-methoxy-1-naphthylfenoterol in HepG2 hepatocarcinoma cells, J. Pharmacol. Exp. Ther., vol. 343, pgs 157-166 (2012); and Paul, et al., (R,R′)-4′-methoxy-1-naphthylfenoteroltargets GPR55-mediated ligand internalization and impairs cancer cellmotility, Biochem. Pharmacol., vol. 87, pgs 547-561 (2014). The effect of MNF on doxorubicin cytotoxicity in PANC-1 cells was measured using [^3H]-thymidine incorporation. In these studies, the cells were incubated with either fresh medium containing vehicle (0.01% DMSO) or MNF (1 μM) for 24 hours. […] Cells were washed with PBS, lysed in 600 μt of 0.1 N NaOH, and the radioactivity was measured by liquid scintillation counting. […]
Sigmoidal dose-response curves (IC50 curves) were determined using the ‘nonlinear regression (curve fit)’ model contained within the Prism 4 software package (GraphPad Software, Inc., La Jolla, Calif.) running on a personal computer. […] Data are expressed as relative fold change ±standard deviation. […]

[8] = PANC-1, MNF 1 μM 24 hours, medium replaced, then drug 0-10 μM 24 hours, read-out: calculated IC50 of chemotherapeutic drug, after MNF pretreatment
[9] = PANC-1, vehicle (0.01% DMSO) 24 hours, then drug 0-10 μM 24 hours, read-out: calculated IC50 of chemotherapeutic drug, without MNF pretreatment

SMILES: Cc1ccc(-c2n[nH]c3c2C(c2cccc(O)c2)N(c2ccc(C(=O)O)cc2)C3=O)cc1 (centres unmarked) [CID]
- induction of EGFR, BCRP, PKM2 by AM251 (GPR55 (PANC-1 cells); PANC-1, 1 μM pretreatment 30 minutes, then AM251 1 μM 24 hours): blocked
- basal levels of EGFR, BCRP, and PKM2 proteins (GPR55 (PANC-1 cells); PANC-1, 1 μM, 24 hours): significantly reduced
- AM251-induced increase in BCRP expression (GPR55 (PANC-1 cells)): blocked
- nuclear pool of phosphoactive form of PKM2 [1]: markedly reduced
- activating phosphorylation of AKT [2]: significantly decreased
- constitutive and AM251-induced nuclear accumulation of HIF-1α and phosphoactive forms of PKM2 (Ser37) and β-catenin (Tyr333) [3]: significantly abrogated

SMILES: Nc1ccn([C@@H]2O[C@H](CO)[C@@H](O)C2(F)F)c(=O)n1 [gemcitabine]
- IC50 (PANC-1 cells [4]; [8]): 153 ± 3 nM
- IC50 (PANC-1 cells [4]; [9]): 487 ± 3 nM
- fold decrease in calculated IC50 by MNF pretreatment (PANC-1 cells [4]; p<0.001): ~3 fold

SMILES: COc1ccc(C[C@@H](C)NC[C@H](O)c2cc(O)cc(O)c2)c2ccccc12 [MNF, (R,R′)-4′-methoxy-1-naphthyl-fenoterol]
- nuclear pool of Pgp and BCRP [5]: marked reduction
- expression of cancer biomarkers (EGFR, β-catenin, PKM2, cyclin D1, Pgp, BCRP, MRP1, MRP5) (GPR55 (PANC-1 cells); PANC-1, MNF 10-1000 nM, 24 hours): dose-dependently reduces
- AM251-induced increase in BCRP expression (GPR55 (PANC-1 cells)): blocked
- nuclear pool of phosphoactive form of PKM2 [1]: markedly reduced
- activating phosphorylation of AKT [2]: significantly decreased
- effect on the growth of MCF-7 cells (MCF-7 cells): no significant effect
- IC50 ([6]; MDA-MB-231, MNF 24 hours, read-out: IC50, inhibition in cell growth): 106 ± 3 nM
- dose-dependent inhibition in cell growth ([6]; MDA-MB-231, MNF 24 hours): 50%
- uptake and nuclear retention of doxorubicin (MDA-MB-231 cells): enhanced uptake and nuclear retention
- IC50 (PANC-1 cells [4]; PANC-1, MNF 0-10 μM, 24 hours, mean±SD, read-out: IC50, inhibition in cell growth): 650 ± 250 nM
- maximum reduction in cell growth (PANC-1 cells [4]; PANC-1, MNF 0-10 μM, 24 hours, p<0.001): 42%
- constitutive and AM251-induced nuclear accumulation of HIF-1α and phosphoactive forms of PKM2 (Ser37) and β-catenin (Tyr333) [3]: significantly abrogated
- uptake and nuclear retention of doxorubicin (PANC-1 cells [7]): enhancement

SMILES: COc1cccc2c1C(=O)c1c(O)c3c(c(O)c1C2=O)C[C@@](O)(C(=O)CO)C[C@@H]3O[C@H]1C[C@H](N)[C@H](O)[C@H](C)O1 [doxorubicin]
- IC50 ([6]; MDA-MB-231, MNF 1 μM 24 hours, then doxorubicin 0-10 μM 24 hours, p<0.05, read-out: calculated IC50 of doxorubicin, after MNF pretreatment): 255 ± 13 nM
- IC50 ([6]; MDA-MB-231, doxorubicin 0-10 μM 24 hours, read-out: calculated IC50 of doxorubicin, without MNF pretreatment): 570 ± 14 nM
- IC50 (PANC-1 cells [4]; [8]): 51 ± 2 nM
- IC50 (PANC-1 cells [4]; [9]): 193 ± 4 nM
- fold decrease in calculated IC50 by MNF pretreatment (PANC-1 cells [4]; p<0.001): ~4 fold
- IC50 (U87MG glioblastoma cells; MNF 0.01 μM 24 hours, then doxorubicin 24 hours, p<0.001, read-out: calculated IC50 of doxorubicin, after MNF pretreatment): 1.1 ± 0.5 nM
- IC50 (U87MG glioblastoma cells; doxorubicin 24 hours, read-out: calculated IC50 of doxorubicin, without MNF pretreatment): 6 ± 0.8 nM

— US20180271808A1, “METHODS OF REDUCING CHEMORESISTANCE AND TREATING CANCER” (Mitchell Woods Pharmaceuticals, Inc., priority 2015, published 2018)
